According to patent US8501936B2 (priority 2009, dated 2013):

Columns and labels:
human JAK2 = human JAK2 (Homo sapiens (Human), UniProt O60674); conditions: read-out: JAK2 IC50
human FAK = human FAK (Homo sapiens (Human), UniProt Q05397); conditions: read-out: FAK IC50
human FAK, sequence (Q05397 whole entry): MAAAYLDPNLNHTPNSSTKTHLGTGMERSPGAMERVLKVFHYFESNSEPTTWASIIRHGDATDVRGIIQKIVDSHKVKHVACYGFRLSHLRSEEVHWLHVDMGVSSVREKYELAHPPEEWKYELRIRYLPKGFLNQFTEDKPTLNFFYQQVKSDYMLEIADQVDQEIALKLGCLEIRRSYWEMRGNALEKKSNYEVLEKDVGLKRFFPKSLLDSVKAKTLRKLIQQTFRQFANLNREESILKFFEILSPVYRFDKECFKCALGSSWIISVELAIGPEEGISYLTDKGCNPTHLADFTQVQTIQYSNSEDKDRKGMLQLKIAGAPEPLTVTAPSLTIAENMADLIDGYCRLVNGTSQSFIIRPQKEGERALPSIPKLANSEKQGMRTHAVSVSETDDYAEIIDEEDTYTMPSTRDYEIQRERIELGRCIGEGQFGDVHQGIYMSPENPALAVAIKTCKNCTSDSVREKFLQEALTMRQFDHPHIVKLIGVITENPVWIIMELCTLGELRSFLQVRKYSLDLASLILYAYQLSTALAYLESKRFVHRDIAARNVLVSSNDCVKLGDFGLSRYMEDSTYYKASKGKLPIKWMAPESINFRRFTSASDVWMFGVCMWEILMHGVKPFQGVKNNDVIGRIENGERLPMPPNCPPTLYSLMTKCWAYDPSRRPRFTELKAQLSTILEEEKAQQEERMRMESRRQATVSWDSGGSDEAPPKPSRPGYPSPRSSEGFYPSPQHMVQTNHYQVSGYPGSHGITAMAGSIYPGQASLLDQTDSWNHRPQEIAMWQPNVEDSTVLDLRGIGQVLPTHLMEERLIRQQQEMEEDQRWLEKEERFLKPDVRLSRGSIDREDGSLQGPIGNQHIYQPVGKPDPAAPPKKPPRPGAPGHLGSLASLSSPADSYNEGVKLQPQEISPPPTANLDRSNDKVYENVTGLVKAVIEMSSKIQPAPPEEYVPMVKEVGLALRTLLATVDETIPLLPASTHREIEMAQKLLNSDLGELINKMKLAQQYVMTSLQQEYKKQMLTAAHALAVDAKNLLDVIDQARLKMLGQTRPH
Description: The ability of compounds to inhibit the kinase activity of baculovirus-expressed human FAK and PYK2 was measured using the 96-well plate TRF assay system described above for JAK2. […] For the FAK kinase assay, the reaction mixture (total volume=100 μL/well) contained 20 mM HEPES (pH 7.2), 10 μM ATP, 5 mM MgCl2, 0.5 mM DTT, 0.1% BSA, and test compound (diluted in DMSO; 2.5% DMSO final in assay). For PYK2, the 100 μL assay solution consisted of 20 mM HEPES (pH 7.2), 3 μM ATP, 5 mM MnCl2, 0.1% BSA, and test compound (diluted in DMSO; 2.5% DMSO final in assay). Enzyme (10 ng/mL FAK or 25 ng/mL PYK2) was added and the reaction was allowed to proceed at room temperature for 30 min. Detection of the phosphorylated product was performed by adding 100 μL/well of Eu—N1 labeled PY100 antibody diluted 1:75000 in 0.25% BSA in TBS-T (PerkinElmer #AD0041). […] Inhibition data were analyzed using ActivityBase and IC50 curves generated using XLFit.

human JAK2, sequence (O60674 815-1132): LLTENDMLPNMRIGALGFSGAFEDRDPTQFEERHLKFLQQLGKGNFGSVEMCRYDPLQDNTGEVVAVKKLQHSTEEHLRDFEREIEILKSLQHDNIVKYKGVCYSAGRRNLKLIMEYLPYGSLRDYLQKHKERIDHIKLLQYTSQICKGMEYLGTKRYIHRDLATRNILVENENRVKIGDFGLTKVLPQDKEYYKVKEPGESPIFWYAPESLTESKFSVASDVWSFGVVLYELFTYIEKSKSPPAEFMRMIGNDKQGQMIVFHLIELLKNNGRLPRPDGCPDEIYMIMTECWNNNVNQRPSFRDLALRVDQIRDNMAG

Row | Compound | IC50 (human JAK2) [nM] | IC50 (human FAK) [nM]
1 | CCCOc1ccc(Cl)cc1-c1cccn2nc(Nc3ccc4c(c3)CCNCC4)nc12 [Example 307, [8-(5-Chloro-2-propoxy-phenyl]-[1,2,4]triazolo[1,5a]pyridine-2-yl]-(2,3,4,5-tetrahydro-benzo[d]azepin-7-yl)-amine] | 828 | 1050
2 | CCCOc1ccc(Cl)cc1-c1cccn2nc(Nc3ccc4c(c3)CCN(CC(=O)N(C)C)CC4)nc12 [Example 308, 2-{7-[8-(5-Chloro-2-propoxy-phenyl]-[1,2,4]triazolo[1,5a]pyridine-2-ylamino]1,2,4,5-tetrahydro-benzo[d]azepin-3-yl)-N,N-dimethyl-acetamide] | 365 | 946
3 | CCOc1ccc(Cl)cc1-c1cccn2nc(Nc3ccc4c(c3)CCNCC4)nc12 [Example 310, [8-(5-Chloro-2-ethoxy-phenyl]-[1,2,4]triazolo[1,5a]pyridine-2-yl]-(2,3,4,5-tetrahydro-benzo[d]azepin-7-yl)-amine] | 33.4 | 1230
4 | COc1ccccc1-c1cccn2nc(Nc3ccc4c(c3)CCN(CC(=O)N(C)C)CC4)nc12 [Example 313, 2-{7-[8-(2-Methoxy-phenyl)-[1,2,4]triazolo[1,5-a]pyridine-2-ylamino]-1,2,4,5-tetrahydro-3-benzazepin-3-yl}-N,N-dimethyl-acetamide] | 39.2 | 10000
5 | COc1ccccc1-c1cccn2nc(Nc3ccc4c(c3)CCN(CCS(C)(=O)=O)CC4)nc12 [Example 314, [3-(2-Methanesulfonyl-ethyl)-2,3,4,5-tetrahydro-1H-3-benzazepin-7-yl]-[8-(2-methoxy-phenyl)-[1,2,4]triazolo[1,5-a]pyridine-2-yl]-amine] | 17.8 | 10000
6 | COc1ccc(C(F)(F)F)cc1-c1cccn2nc(Nc3ccc4c(c3)CCN(CC(=O)N(C)C)CC4)nc12 [Example 317, 2-{7-[8-(2-Methoxy-5-trifluoromethyl-phenyl)-[1,2,4]triazolo[1,5-a]pyridin-2-ylamino]-1,2,4,5-tetrahydro-3-benzazepin-3-yl}-N,N-dimethyl-acetamide] | 54.5 | 2000
7 | CCOc1ccc(C(F)(F)F)cc1-c1cccn2nc(Nc3ccc4c(c3)CCNCC4)nc12 [Example 319] | 137 | 1310
8 | CCOc1ccc(C(F)(F)F)cc1-c1cccn2nc(Nc3ccc4c(c3)CCN(CCS(C)(=O)=O)CC4)nc12 [Example 320, [8-(2-Ethoxy-5-trifluoromethyl-phenyl)-[1,2,4]triazolo[1,5-a]pyridin-2-yl]-[3-(2-methanesulfonyl-ethyl)-2,3,4,5-tetrahydro-1H-3-benzazepin-7yl)-amine] | 160 | 3000
9 | CCOc1ccc(C(F)(F)F)cc1-c1cccn2nc(Nc3ccc4c(c3)CCN(CC(=O)N(C)C)CC4)nc12 [Example 321, 2-{7-[8-(2-Ethoxy-5-trifluoromethyl-phenyl)-[1,2,4]triazolo[1,5-a]pyridin-2-ylamino]-1,2,4,5-tetrahydro-3-benzazepin-3-yl}-N,N-dimethyl-acetamide] | 223 | 1780
10 | COc1ccc(C(F)(F)F)cc1-c1cccn2nc(Nc3ccc4c(c3)CCN(CCS(C)(=O)=O)CC4)nc12 [Example 322, [3-(2-Methanesulfonyl-ethyl)-2,3,4,5-tetrahydro-1H-3-benzazepin-7-yl]-[8-(2-methoxy-5-trifluoromethyl-phenyl)-[1,2,4]triazolo[1,5-a]pyridine-2-yl]-amine] | 12.7 | 572
11 | COc1ccc(F)cc1-c1cccn2nc(Nc3ccc4c(c3)CCN(CC(=O)N(C)C)CC4)nc12 [Example 323, 2-{7-[8-(5-Fluoro-2-methoxy-phenyl)-[1,2,4]triazolo[1,5-a]pyridin-2-ylamino]-1,2,4,5-tetrahydro-3-benzazepin-3-yl}-N,N-dimethyl-acetamide] | 11.3 | 691
12 | COc1cc(F)ccc1-c1cccn2nc(Nc3ccc4c(c3)CCN(CC(=O)N(C)C)CC4)nc12 [Example 324, 2-{7-[8-(4-Fluoro-2-methoxy-phenyl)-[1,2,4]triazolo[1,5-a]pyridin-2-ylamino]-1,2,4,5-tetrahydro-3-benzazepin-3-yl}-N,N-dimethyl-acetamide] | 47 | 3000
13 | FC(F)COc1ccc(C(F)(F)F)cc1-c1cccn2nc(Nc3ccc4c(c3)CCNCC4)nc12 [Example 328] | 257 | 999
14 | CN(C)C(=O)CN1CCc2ccc(Nc3nc4c(-c5cc(C(F)(F)F)ccc5OCC(F)F)cccn4n3)cc2CC1 [Example 329, 2-(7-{8-[2-(2,2-Difluoro-ethoxy)-5-trifluoromethyl-phenyl]-[1,2,4]triazolo[1,5-a]pyridin-2-ylamino}-1,2,4,5-tetrahydro-3-benzazepin-3-yl)-N,N-dimethyl-acetamide] | 317 | 999
15 | COc1cc(Cl)ccc1-c1cccn2nc(Nc3ccc4c(c3)CCN(CC(=O)N(C)C)C4)nc12 [Example 331, 2-{6-[8-(4-Chloro-2-methoxy-phenyl)-[1,2,4]-triazolo[1,5-a]pyridin-2-ylamino]-3,4-dihydro-1H-isoquinolin-2-yl}-N,N-dimethyl-acetamide] | 21.2 | 6500
16 | COc1ccc(C(F)(F)F)cc1-c1cccn2nc(Nc3ccc4c(c3)CCN(C(=O)OC(C)(C)C)C4)nc12 [Example 336, 6-[8-(2-Methoxy-5-trifluoromethyl-phenyl)-[1,2,4]triazolo[1,5-a]pyridin-2-ylamino]-3,4-dihydro-1H-isoquinoline-2-carboxylic acid tert-butyl ester] | 1150 | 10000
17 | COc1ccc(C(F)(F)F)cc1-c1cccn2nc(Nc3ccc4c(c3)CCNC4)nc12 [Example 337, [8-(2-Methoxy-5-trifluoromethyl-phenyl)-[1,2,4]triazolo[1,5-a]pyridine-2-yl]-(1,2,3,4-tetrahydro-isoquinolin-6-yl)-amine] | 41.9 | 778
18 | COc1ccc(C(F)(F)F)cc1-c1cccn2nc(Nc3ccc4c(c3)CCN(CC(=O)N(C)C)C4)nc12 [Example 338, 2-{6-[8-(2-Methoxy-5-trifluoromethyl-phenyl)-[1,2,4]-triazolo[1,5-a]pyridin-2-ylamino]-3,4-dihydro-1H-isoquinolin-2-yl}-N,N-dimethyl-acetamide] | 41.4 | 1370
19 | CN1CCN(c2cccc(Nc3nc4c(-c5ccc(F)cc5)cccn4n3)c2)CC1 [Example 365, [8-(4-Fluoro-phenyl)-[1,2,4]-triazolo[1,5-a]pyridin-2-yl]-[3-(4-methyl-piperazin-1-yl)-phenyl]-amine] | 29.1 | 999
20 | CN(C)C(=O)CN1CCc2ccc(Nc3nc4c(-c5ccccc5OCC(F)F)cccn4n3)cc2CC1 [Example 368, 2-(7-{8-[2-(2,2-Difluoro-ethoxy)-phenyl]-[1,2,4]triazolo[1,5-a]pyridin-2-ylamino}-1,2,4,5-tetrahydro-3-benzazepin-3-yl)-N,N-dimethyl-acetamide] | 197 | 2430
21 | CS(=O)(=O)c1ccc(-c2cccn3nc(Nc4ccc5c(c4)CCNCC5)nc23)c(OCC(F)F)c1 [Example 370, {8-[2-(2,2-Difluoro-ethoxy)-4-methanesulfonyl-phenyl]-[1,2,4]triazolo[1,5-a]pyridin-2-yl}-(2,3,4,5-tetrahydro-1H-3-benzazepin-7-yl)-amine] | 61.9 | 999
